Source: publication PMC8646019, “Azvudine is a thymus-homing anti-SARS-CoV-2 drug effective in treating COVID-19 patients” (Signal Transduction and Targeted Therapy, 2021)
Where two headings read alike, the source gives them in different places.

Key:
[1] = Biodistribution and metabolism of remdesivir in rats (UHPLC-MS/MS); format: in vivo, Sprague-Dawley rats; conditions: rat; for Concentration in PBMCs / Concentration in brain / Concentration in epididymis / Concentration in heart / Concentration in liver / Concentration in lung / concentration at 2 h / concentration at 6 h: GS-5734 100 mg/kg i.p.; for Concentration in PBMCs / Concentration in brain / Concentration in epididymis / Concentration in heart / Concentration in liver / Concentration in lung: average n=5; for concentration at 2 h / concentration at 6 h: male, Sprague-Dawley, in vivo, 100 mg/kg
Description: 10 male Sprague-Dawley rats (250 ± 25 g) were purchased from Vital River Laboratories Co., LTD (Beijng, China). The rats were divided randomly into two groups with five rats in each, and were administered with GS-5734 at a single dose of 100 mg/kg, i.p. At the time point of 2h and 6h after drug administration, rats in one group were dissected with euthanization and blood samples as well as heart, liver, spleen, lung, kidney, brain, thymus, testis, and epididymis were collected for UHPLC-MS/MS analysis as mentioned above.
The analysis method was like that for FNC expect that the flow rate was set at 0.4 mL/min and the gradient elution was employed using the following program: 0-1.5min, 100-65%B; 1.5-4min, 65-60%B; 4-5min, 60-56%B. Multiple-reaction monitoring (MRM) mode was performed using the characteristic precursor to product ion transitions (Supplementary Table 4b).
The standard curves of blank kidney tissue matrix, plasma matrix and PBMCs matrix were applied for quantitative analysis of GS-5734 and its metabolites. GS-5734, Nuc, Nuc-MP and Nuc-TP were quantified using their own standard curves, and the metabolites of GS-5734 (Ala-Nuc and Nuc-DP) were quantified using Nuc-MP standard curves.
Figure. S4. […] 10 male Sprague-Dawley rats were administered with GS-5734 at a single dose of 100 mg/kg, i.p. At the time point of 2 h and 6 h after drug administration, five rats were dissected. The blood samples as well as heart, liver, spleen, lung, kidney, brain, thymus, testis, and epididymis were collected for UHPLC-MS/MS analysis performed on a UHPLC system (1290 series, Agilent Technologies, US) coupled to a triple quadrupole mass spectrometer (Agilent 6470 QQQ). a.

SARS-CoV-2 [2] = experiment: Anti-SARS-CoV-2 assay in Vero E6 cells (qRT-PCR of viral RNA copies, CPE); format: cell-based
[3] = Cytotoxicity in Vero E6 cells (Cell Titer 96 Aqueous one Solution Cell Proliferation Assay); format: cell-based; conditions: African green monkey, Vero E6, 48 h
Description: (§1) The cytotoxicity of the tested drugs in Vero E6 or Calu-3 Cells were determined by Cell Titer 96® Aqueous one Solution Cell Proliferation Assay (Promega, US). To evaluate the antiviral efficacy of the drugs, Vero E6 or Calu-3 cells were cultured overnight in 96-well plate with a density of 4 ×10^4 cells/well. Cells were pre-treated with the different doses of the indicated antivirals for 1 h. Viruses (MOI=0.05) were subsequently added to cells, followed by 1 h incubation. Then, the virus-drug mixture was removed and cells were further cultured with fresh drug-containing medium. At 48 h post infection (pi), the culture supernatant was collected and lysed in Trizol (Thermo, Cat no. 15596018) for further analysis. Remdesivir was tested as reference.

SARS-CoV-2 [4] = experiment: Anti-SARS-CoV-2 assay in Calu-3 cells (qRT-PCR); format: cell-based
[5] = Cytotoxicity in Calu-3 cells (Cell Titer 96 Aqueous one Solution Cell Proliferation Assay); format: cell-based; conditions: human, Calu-3, 48 h
Description: as §1

HCoV-OC43 = experiment: Anti-HCoV-OC43 assay in H460 cells (CPE, Western blot, immunofluorescence); format: cell-based
[6] = tested on: SARS-CoV-2 and HCoV-OC43 coronavirus; experiment: Anti-coronavirus activity in vitro, summary over viruses and cells; format: cell-based; conditions: depending on viruses or cells

## C[C@H](NP(=O)(O)OC[C@H]1O[C@@](C#N)(c2ccc3c(N)ncnn23)[C@H](O)[C@@H]1O)C(=O)O [Ala-Nuc]
[1]; 2 h
  Concentration in PBMCs: 0.55 ng/10^6 cells
  Concentration in brain: 24.16 ng/g tissue
  Concentration in epididymis: 24.05 ng/g tissue
  Concentration in heart: 3908.49 ng/g tissue
  Concentration in liver: 1304.94 ng/g tissue
  Concentration in lung: 82.87 ng/g tissue
[1]; 6 h
  Concentration in PBMCs: 0.50 ng/10^6 cells
  Concentration in brain: 38.27 ng/g tissue
  Concentration in epididymis: 48.37 ng/g tissue
  Concentration in heart: 5730.68 ng/g tissue
  Concentration in liver: 416.97 ng/g tissue
  Concentration in lung: 73.42 ng/g tissue

## CC(C)OC(=O)[C@H](C)N[P@](=O)(OC[C@@]1(N=[N+]=[N-])O[C@@H](n2ccc(N)nc2=O)[C@@H](F)[C@@H]1O)Oc1ccccc1 [CL-236]
SARS-CoV-2 [2]; Severe acute respiratory syndrome coronavirus 2, Vero C1008, 48 h, Vero E6, MOI 0.05, qRT-PCR, 48 h, read-out: EC50, SARS-CoV-2 RNA replication
  EC50: 4.31 µM
SARS-CoV-2 [2]; Vero E6
  selectivity index (SI): 15.35
SARS-CoV-2 [2]; Vero E6, 48 h
  cytopathic effect (CPE) of SARS-CoV-2: protected the cells from SARS-CoV-2-caused cell death
[3]
  CC50 at 48 h: 66.2 µM
SARS-CoV-2 [4]; Calu-3
  selectivity index (SI): 83
SARS-CoV-2 [4]; Severe acute respiratory syndrome coronavirus 2, Calu-3, MOI 0.05, qRT-PCR, 48 h, read-out: EC50, SARS-CoV-2 RNA replication
  EC50: 1.2 µM
[5]
  CC50 at 48 h: > 102 µM
HCoV-OC43; Betacoronavirus 1, OC43, NCI-H460, evaluated by CPE, read-out: EC50, HCoV-OC43 infection
  EC50: 1.2 µM
HCoV-OC43; Western blot, 48 h
  HCoV-OC43 N protein expression: decrease in N protein expression
HCoV-OC43; evaluated by CPE
  SI: 20
[6]
  EC50: 1.2 to 4.3 µM
  selective index (SI): 15–83

## N#C[C@@]1(c2ccc3c(N)ncnn23)O[C@H](COP(=O)(O)OP(=O)(O)O)[C@@H](O)[C@H]1O [Nuc-DP]
[1]; 2 h
  Concentration in PBMCs: 0.15 ng/10^6 cells
  Concentration in epididymis: 33.09 ng/g tissue
  Concentration in lung: 146.16 ng/g tissue
[1]; 6 h
  Concentration in PBMCs: 0.14 ng/10^6 cells
  Concentration in epididymis: 49.65 ng/g tissue
  Concentration in lung: 118.94 ng/g tissue

## N#C[C@@]1(c2ccc3c(N)ncnn23)O[C@H](COP(=O)(O)O)[C@@H](O)[C@H]1O [Nuc-MP]
[1]; 2 h
  Concentration in PBMCs: 0.44 ng/10^6 cells
  Concentration in epididymis: 6493.99 ng/g tissue
  Concentration in lung: 3904.37 ng/g tissue
[1]; 6 h
  Concentration in PBMCs: 0.32 ng/10^6 cells
  Concentration in epididymis: 555.72 ng/g tissue
  Concentration in lung: 309.88 ng/g tissue

## N#C[C@@]1(c2ccc3c(N)ncnn23)O[C@H](COP(=O)(O)OP(=O)(O)OP(=O)(O)O)[C@@H](O)[C@H]1O [Nuc-TP]
[1]; 2 h
  Concentration in PBMCs: 12.32 ng/10^6 cells
  Concentration in epididymis: 486.87 ng/g tissue
  Concentration in lung: 3168.31 ng/g tissue
[1]; 6 h
  Concentration in PBMCs: 12.82 ng/10^6 cells
  Concentration in epididymis: 1225.27 ng/g tissue
  Concentration in lung: 2057.66 ng/g tissue
[1]; remdesivir ip, 2 and 6 h
  level of Nuc-TP in the thymus: below the detectable line

## CCC(CC)COC(=O)[C@H](C)N[P@](=O)(OC[C@H]1O[C@@](C#N)(c2ccc3c(N)ncnn23)[C@H](O)[C@@H]1O)Oc1ccccc1 [Remdesivir, reference compound]
[1]; 2 h, average n=5, read-out: Concentration in brain
  concentration at 2 h: 0.61 ng/g
[1]; 2 h, average n=5, read-out: Concentration in epididymis
  concentration at 2 h: 42.1 ng/g
[1]; 2 h, average n=5, read-out: Concentration in heart
  concentration at 2 h: 5.12 ng/g
[1]; 2 h, average n=5, read-out: Concentration in kidney
  concentration at 2 h: 25.4 ng/g
[1]; 2 h, average n=5, read-out: Concentration in liver
  concentration at 2 h: 38.4 ng/g
[1]; 2 h, average n=5, read-out: Concentration in lung
  concentration at 2 h: 5.14 ng/g
[1]; 2 h, average n=5, read-out: Concentration in spleen
  concentration at 2 h: 39.4 ng/g
[1]; 2 h, average n=5, read-out: Concentration in testis
  concentration at 2 h: 2.88 ng/g
[1]; 2 h, average n=5, read-out: Concentration in thymus
  concentration at 2 h: 29.9 ng/g
[1]; 6 h, average n=5, read-out: Concentration in brain
  concentration at 6 h: 0.78 ng/g
[1]; 6 h, average n=5, read-out: Concentration in epididymis
  concentration at 6 h: 0.6 ng/g
[1]; 6 h, average n=5, read-out: Concentration in heart
  concentration at 6 h: 28.6 ng/g
[1]; 6 h, average n=5, read-out: Concentration in kidney
  concentration at 6 h: 0.84 ng/g
[1]; 6 h, average n=5, read-out: Concentration in liver
  concentration at 6 h: 13.1 ng/g
[1]; 6 h, average n=5, read-out: Concentration in lung
  concentration at 6 h: 0.87 ng/g
[1]; 6 h, average n=5, read-out: Concentration in spleen
  concentration at 6 h: 0.32 ng/g
[1]; 6 h, average n=5, read-out: Concentration in thymus
  concentration at 6 h: 2.74 ng/g
